Source: US20040162422A1, “Chemical compounds” (priority 2001, published 2004)

Key:
[1] = molecular target: T1, human adenosine A1 receptors (Homo sapiens, UniProt P30542); test: Reporter gene experiments in yeast (agonist activity, β-galactosidase/FDG readout); assay type: cell-based; set-up: key: equipotent concentration ratio relative to NECA = 1; conditions: ECR = equipotent concentration ratio relative to NECA = 1; agonist potency, yeast reporter gene assay
T1 construct: expressed in transfected cells
T1 sequence (P30542 1-326): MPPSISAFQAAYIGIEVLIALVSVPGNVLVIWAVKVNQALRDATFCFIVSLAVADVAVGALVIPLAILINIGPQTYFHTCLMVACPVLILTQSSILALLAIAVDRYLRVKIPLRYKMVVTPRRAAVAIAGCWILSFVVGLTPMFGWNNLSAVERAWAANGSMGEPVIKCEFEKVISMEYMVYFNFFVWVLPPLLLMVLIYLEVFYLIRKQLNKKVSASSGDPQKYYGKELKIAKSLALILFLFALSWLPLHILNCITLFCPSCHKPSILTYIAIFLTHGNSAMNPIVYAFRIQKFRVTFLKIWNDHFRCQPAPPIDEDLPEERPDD
Procedure: Reporter Gene Experiments in Yeast
Agonist activity at human adenosine A1 receptors was measured in yeast cell lines expressing the adenosine A1 receptor together with a chimeric G-protein which linked receptor stimulation to the expression of the enzyme β-galactosidase. Cells were plated out in 96-well plates in culture medium to which was added 2 mM 3-AT (3-aminotriazole) to limit basal growth in the absence of agonist stimulation, and FDG (fluorescein di-β-D-galactopyranoside) as substrate for β-galactosidase, which converts FDG to fluorescein. For measurement of potency, agonists were added to the appropriate wells at a concentration range of approximately 10^−10-10^−5M and incubated at 30° C. for 18 hours. At this point the amount of fluorescein generated was measured in a spectrophotometer. From these readings, the concentration-dependence of the stimulation by the agonist can be calculated. One of the agonists tested on each 96-well plate was the standard non-selective agonist, N-ethylcarboxamidoadenosine (NECA), and the potency of all test agonists is expressed relative to that of the NECA standard.
(ECR=equipotent concentration ratio relative to NECA=1)

[2] = molecular target: T2, human adenosine A3 receptors (Homo sapiens, UniProt P0DMS8); test: Reporter gene experiments in CHO cells (CRE/SPAP, inhibition of forskolin-stimulated SPAP production); assay type: cell-based; conditions: ECR = equipotent concentration ratio relative to NECA = 1; agonist potency, CHO CRE/SPAP reporter gene assay
T2 construct: expressed in transfected cells; host or cells: Chinese hamster ovary (CHO) cells with CRE/SPAP/HYG reporter
T2 sequence (P0DMS8 1-318): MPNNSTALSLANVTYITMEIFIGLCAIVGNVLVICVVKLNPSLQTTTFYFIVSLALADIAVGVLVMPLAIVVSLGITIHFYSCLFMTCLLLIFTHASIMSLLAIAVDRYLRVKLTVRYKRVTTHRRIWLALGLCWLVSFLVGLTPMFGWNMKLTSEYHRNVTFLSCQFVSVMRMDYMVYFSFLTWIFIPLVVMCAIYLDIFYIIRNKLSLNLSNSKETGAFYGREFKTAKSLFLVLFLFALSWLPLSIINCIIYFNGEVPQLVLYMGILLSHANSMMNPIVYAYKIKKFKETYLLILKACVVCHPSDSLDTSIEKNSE
From the text: The compounds useful in the invention are agonists at the adenosine A1 receptor. Preferably they are selective agonists at the adenosine A1 receptor. By selective is meant that the affinity for the A1 receptor is at least 2 times, preferably 5 times and more preferably 10 times greater than the other adenosine receptor subtypes, particularly A3. Agonist selectivity of compounds against other human adenosine receptors can be determined using Chinese hamster ovary (CHO) cells transfected with the gene for the relevant human adenosine receptor following a method based on that of Castanon, K V. and Spevak, W. (1994) Biochem. Biophys. Res. Commun. 198, 626-631. The CHO cells are also transfected with cyclic AMP response elements promoting the gene for secreted placental alkaline phosphatase (SPAP) (Wood, K V. (1995) Cuff. Opinion. Biotechnology, 6, 50-58). The effect of test compounds is determined by their effects on basal levels of cAMP (A2a) or on forskolin-enhanced cAMP (A1 and A3) as reflected by changes in levels of SPAP. EC50 values for compounds are determined as a ratio to that of the non-selective agonist N-ethyl carboxamidoadenosine (NECA). “Adenosine receptors: New opportunities for future drugs” (S. A. Poulsen et al, Bioorg. Med. Chem,. 1998, 6, 619-641) summarises disease conditions that may be treated with adenosine A1 agonists.
Reporter Gene Experiments in CHO cells
Agonist activity at human adenosine A3 receptors was measured in Chinese hamster ovary (CHO) cells containing the CRE/SPAP/HYG (CRE=cyclic AMP response element; HYG=hygromycin resistance; SPAP=secreted placental alkaline phosphatase) reporter gene elements, which upon stimulation of cAMP levels produced SPAP. A cell line was used which was stably transfected with the human adenosine A3 receptor in addition to the above elements. Cells were plated out in 96-well plates in culture medium and incubated at 37° C. for 1 hour. For measurement of potency, agonists were added to the appropriate wells at a concentration range of approximately 10^−10-10^−5M. 15 Min later, cAMP levels were stimulated by addition of a maximal concentration of forskolin. All cells were then incubated for a further 5 hours at 37° C., and cooled to room temperature, after which a substrate for the phosphatase (para-nitrophenol phosphate, pNPP), which is converted by SPAP to a coloured reagent) was then added and the 96-well plates were read in a plate reader. From these readings, the concentration-dependence of the inhibition by the agonist for forskolin-stimulated SPAP production can be calculated. As with the yeast assays, one of the agonists tested on each 96-well plate was the standard non-selective agonist, N-ethylcarboxamidoadenosine (NECA), and the potency of all test agonists is expressed relative to that of the NECA standard.

In the case of C#C[C@H]1O[C@@H](n2cnc3c(N[C@H]4C[C@H]5CCC[C@H]54)ncnc32)[C@H](O)[C@@H]1O (relative stereo) [Example 17, (2R,3R,4S,5R)-2-{6-[(1R*,5R*,6S*)-Bicyclo[3.2.0]hept-6-ylamino]-9H-purin-9-yl}-5-ethynyltetrahydrofuran-3,4-diol], the “Adenosine A1 receptor ECR*” value [1] is reported as 2.88 and the “Adenosine A3 receptor ECR*” value [2] is reported as greater than 416.

C#C[C@H]1O[C@@H](n2cnc3c(NCCc4ccccc4)ncnc32)[C@H](O)[C@@H]1O [Example 6, (2R,3R,4S,5R)-5-ethynyl-2-{6-[(2-phenylethyl)amino]-9H-purin-9-yl}tetrahydrofuran-3,4-diol] was tested, and the “Adenosine A1 receptor ECR*” value [1] was 24.6 and the “Adenosine A3 receptor ECR*” value [2] was greater than 1059.

For C#C[C@H]1O[C@@H](n2cnc3c(N[C@H]4CCO[C@H]4C)ncnc32)[C@H](O)[C@@H]1O [Example 14, (2R,3R,4S,5R)-5-Ethynyl-2-(6-{[(2S,3S)-2-methyltetrahydrofuran-3-yl]amino}-9H-purin-9-yl)tetrahydrofuran-3,4-diol], the “Adenosine A1 receptor ECR*” value [1] was 14.86 and the “Adenosine A3 receptor ECR*” value [2] was greater than 502.

With C#C[C@H]1O[C@@H](n2cnc3c(Nc4ccc(F)cc4C)ncnc32)[C@H](O)[C@@H]1O [Example 36, (2R,3R,4S,5R)-5-Ethynyl-2-{6-[(4-fluoro-2-methylphenyl)amino]-9H-purin-9-yl}tetrahydrofuran-3,4-diol] the “Adenosine A1 receptor ECR*” value [1] was 7.15 and the “Adenosine A3 receptor ECR*” value [2] was greater than 1117.

C#C[C@H]1O[C@@H](n2cnc3c(Nc4cc(Cl)ccc4C)ncnc32)[C@H](O)[C@@H]1O [Example 40, (2R,3R,4S,5R)-2-{6-[(5-chloro-2-methylphenyl)amino]-9H-purin-9-yl}-5-ethynyltetrahydrofuran-3,4-diol] was tested, and the “Adenosine A1 receptor ECR*” value [1] was 16.94 and the “Adenosine A3 receptor ECR*” value [2] was greater than 505.

For C#C[C@H]1O[C@@H](n2cnc3c(Nc4cccc(F)c4C)ncnc32)[C@H](O)[C@@H]1O [Example 37, (2R,3R,4S,5R)-5-ethynyl-2-{6-[(3-fluoro-2-methylphenyl)amino]-9H-purin-9-yl}tetrahydrofuran-3,4-diol], the “Adenosine A1 receptor ECR*” value [1] was 4.79 and the “Adenosine A3 receptor ECR*” value [2] was greater than 145.

With C#C[C@H]1O[C@@H](n2cnc3c(NC4CCCC4)ncnc32)[C@H](O)[C@@H]1O [Example 12] the “Adenosine A1 receptor ECR*” value [1] was 4.47 and the “Adenosine A3 receptor ECR*” value [2] was greater than 80.2.

C#C[C@H]1O[C@@H](n2cnc3c(Nc4cccc(Cl)c4C)ncnc32)[C@H](O)[C@@H]1O [Example 38, (2R,3R,4S,5R)-2-{6-[(3-Chloro-2-methylphenyl)amino]-9H-purin-9-yl}-5-ethynyltetrahydrofuran-3,4-diol] was tested, and the “Adenosine A1 receptor ECR*” value [1] was 5.45 and the “Adenosine A3 receptor ECR*” value [2] was greater than 145.

C#C[C@H]1O[C@@H](n2cnc3c(Nc4ccc(Cl)cc4F)ncnc32)[C@H](O)[C@@H]1O [Example 33, (2R,3R,4S,5R)-2-{6-[(4-Chloro-2-fluorophenyl)amino]-9H-purin-9-yl}-5-ethynyltetrahydrofuran-3,4-diol] was tested, and the “Adenosine A1 receptor ECR*” value [1] was 26.31 and the “Adenosine A3 receptor ECR*” value [2] was greater than 215.

In the case of C#C[C@H]1O[C@@H](n2cnc3c(NCCS(=O)(=O)NCC)ncnc32)[C@H](O)[C@@H]1O [Example 1, N-Ethyl-2-({9-[(2R,3R,4S,5R)-5-ethynyl-3,4-dihydroxytetrahydrofuran-2-yl]-9H-purin-6-yl}amino)ethanesulfonamide], the “Adenosine A1 receptor ECR*” value [1] is reported as 9.95 and the “Adenosine A3 receptor ECR*” value [2] is reported as greater than 1070.

For C#C[C@H]1O[C@@H](n2cnc3c(N[C@H]4[C@H]5CC[C@H](C5)[C@@H]4C)ncnc32)[C@H](O)[C@@H]1O [Example 8, (2R,3R,4S,5R)-5-Ethynyl-2-(6-{[(1S,2S,3S,4R)-3-methylbicyclo[2.2.1]hept-2-yl]amino}-9H-purin-9-yl)tetrahydrofuran-3,4-diol], the “Adenosine A1 receptor ECR*” value [1] was 7.94 and the “Adenosine A3 receptor ECR*” value [2] was greater than 178.

For C#C[C@H]1O[C@@H](n2cnc3c(Nc4ccc(Cl)cc4C)ncnc32)[C@H](O)[C@@H]1O [Example 39, (2R,3R,4S,5R)-2-{6-[(4-Chloro-2-methylphenyl)amino]-9H-purin-9-yl}-5-ethynyltetrahydrofuran-3,4-diol], the “Adenosine A1 receptor ECR*” value [1] was 7.36 and the “Adenosine A3 receptor ECR*” value [2] was greater than 168.

“(2R,3R,4S,5R)-5-Ethynyl-2-{6-[(trans-4-hydroxycyclohexyl)amino]-9H-purin-9-yl}tetrahydrofuran-3,4-diol [Example 19]” was tested, and the “Adenosine A1 receptor ECR*” value [1] was 8.57 and the “Adenosine A3 receptor ECR*” value [2] was greater than 3208.

With C#C[C@H]1O[C@@H](n2cnc3c(Nc4ccc(F)cc4F)ncnc32)[C@H](O)[C@@H]1O [Example 32, (2R,3R,4S,5R)-2-{6-[(2,4-Difluorophenyl)amino]-9H-purin-9-yl}-5-ethynyltetrahydrofuran-3,4-diol] the “Adenosine A1 receptor ECR*” value [1] was 7.94 and the “Adenosine A3 receptor ECR*” value [2] was greater than 1070.

With C#C[C@H]1O[C@@H](n2cnc3c(N[C@@H]4CCO[C@@H]4C)ncnc32)[C@H](O)[C@@H]1O [Example 13, (2R,3R,4S,5R)-5-Ethynyl-2-(6-{[(2R,3R)-2-methyltetrahydrofuran-3-yl]amino}-9H-purin-9-yl)tetrahydrofuran-3,4-diol] the “Adenosine A1 receptor ECR*” value [1] was 18.86 and the “Adenosine A3 receptor ECR*” value [2] was greater than 386.

C#C[C@H]1O[C@@H](n2cnc3c(NC4CCCCC4)ncnc32)[C@H](O)[C@@H]1O [Example 7, (2R,3R,4S,5R)-2-[6-(Cyclohexylamino)-9H-purin-9-yl]-5-ethynyltetrahydrofuran-3,4-diol] was tested, and the “Adenosine A1 receptor ECR*” value [1] was 11.4 and the “Adenosine A3 receptor ECR*” value [2] was greater than 178.

For C#C[C@H]1O[C@@H](n2cnc3c(NC4CC4(C)C)ncnc32)[C@H](O)[C@@H]1O (stereo partly drawn) [Example 18, (2R,3R,4S,5R)-2-{6-[(2,2-Dimethylcyclopropyl)amino]-9H-purin-9-yl}-5-ethynyltetrahydrofuran-3,4-diol], the “Adenosine A1 receptor ECR*” value [1] was 6.81 and the “Adenosine A3 receptor ECR*” value [2] was greater than 3208.
